According to ChEMBL document CHEMBL6121016, “Design, Synthesis, and Biological Evaluation of 1,3,4-Thiadiazole Derivatives as Novel Potent Peptide Deformylase Inhibitors for Combating Drug-Resistant Gram-Positive and -Negative Bacteria” (J Med Chem, 2025):
≈ marks a conversion by molar mass, not a printed value.

Tests used:
[1] = Methemoglobin toxicity in human blood at 500 uM incubated for 6 hrs by MetHb content assay; type: tissue-based
Staphylococcus aureus [2] = assay: Antibacterial activity against methicillin-resistant Staphylococcus aureus ATCC 33591 after 16 to 18 hrs by broth microdilution method; type: functional; conditions: time 16-18 hrs
Staphylococcus aureus [3] = assay: Antibacterial activity against methicillin-resistant Staphylococcus aureus ATCC 43300 after 16 to 18 hrs by broth microdilution method; type: functional; conditions: time 16-18 hrs
Staphylococcus aureus [4] = assay: Antibacterial activity against methicillin-resistant Staphylococcus aureus Bio-090770 after 16 to 18 hrs by broth microdilution method; type: functional; conditions: time 16-18 hrs
Staphylococcus aureus [5] = assay: Antibacterial activity against methicillin-susceptible Staphylococcus aureus ATCC 29213 after 16 to 18 hrs by broth microdilution method; type: functional; conditions: time 16-18 hrs
Staphylococcus aureus [6] = assay: Antibacterial activity against methicillin-susceptible Staphylococcus aureus ATCC 25923 after 16 to 18 hrs by broth microdilution method; type: functional; conditions: time 16-18 hrs
Staphylococcus aureus [7] = assay: Antibacterial activity against methicillin-susceptible Staphylococcus aureus ATCC 13709 after 16 to 18 hrs by broth microdilution method; type: functional; conditions: time 16-18 hrs
[8] = test system: Staphylococcus epidermidis; assay: Antibacterial activity against Staphylococcus epidermidis after 16 to 18 hrs by broth microdilution method; type: functional; conditions: time 16-18 hrs
Escherichia coli [9] = assay: Antibacterial activity against Escherichia coli ATCC 25922 after 16 to 18 hrs by broth microdilution method; type: functional; conditions: time 16-18 hrs
Klebsiella pneumoniae [10] = assay: Antibacterial activity against Klebsiella pneumoniae CICC 21611 after 16 to 18 hrs by broth microdilution method; type: functional; conditions: time 16-18 hrs
Acinetobacter baumannii [11] = assay: Antibacterial activity against Acinetobacter baumannii Bio 34235 after 16 to 18 hrs by broth microdilution method; type: functional; conditions: time 16-18 hrs
Acinetobacter baumannii [12] = assay: Antibacterial activity against drug-resistant Acinetobacter baumannii Bio 53272 after 16 to 18 hrs by broth microdilution method; type: functional; conditions: time 16-18 hrs
Acinetobacter baumannii [13] = assay: Antibacterial activity against Acinetobacter baumannii Bio 53272 after 16 to 18 hrs by broth microdilution method; type: functional; conditions: time 16-18 hrs
Acinetobacter baumannii [14] = assay: Antibacterial activity against Acinetobacter baumannii Bio 24253 after 16 to 18 hrs by broth microdilution method; type: functional; conditions: time 16-18 hrs
Acinetobacter baumannii [15] = assay: Antibacterial activity against Acinetobacter baumannii Bio 53250 after 16 to 18 hrs by broth microdilution method; type: functional; conditions: time 16-18 hrs
Acinetobacter baumannii [16] = assay: Antibacterial activity against Acinetobacter baumannii Bio 69680 after 16 to 18 hrs by broth microdilution method; type: functional; conditions: time 16-18 hrs
Acinetobacter baumannii [17] = assay: Antibacterial activity against Acinetobacter baumannii Bio 120982 after 16 to 18 hrs by broth microdilution method; type: functional; conditions: time 16-18 hrs
Klebsiella pneumoniae [18] = assay: Antibacterial activity against Klebsiella pneumoniae CICC 21092 after 16 to 18 hrs by broth microdilution method; type: functional; conditions: time 16-18 hrs
Klebsiella pneumoniae [19] = assay: Antibacterial activity against Klebsiella pneumoniae CICC 20093 after 16 to 18 hrs by broth microdilution method; type: functional; conditions: time 16-18 hrs
Escherichia coli [20] = assay: Antibacterial activity against Escherichia coli ATCC 10668 after 16 to 18 hrs by broth microdilution method; type: functional; conditions: time 16-18 hrs
Escherichia coli [21] = assay: Antibacterial activity against Escherichia coli ATCC 10663 after 16 to 18 hrs by broth microdilution method; type: functional; conditions: time 16-18 hrs
Escherichia coli [22] = assay: Antibacterial activity against Escherichia coli ATCC 10661 after 16 to 18 hrs by broth microdilution method; type: functional; conditions: time 16-18 hrs
[23] = Cytotoxicity against human HEK293T cells assessed as cell viability at 3.125 to 100 uM incubated for 24 hrs by MTT assay; type: toxicity, cell-based, HEK-293T
[24] = Cytotoxicity against human HeLa cells assessed as cell viability at 3.125 to 100 uM incubated for 24 hrs by MTT assay; type: toxicity, cell-based
[25] = Aqueous solubility of compound at 0.9% aqueous NaCl solution incubated for 2 hrs by UV spectrophotometry analysis; type: physicochemical
Peptide deformylase [26] = target: T1, Peptide deformylase (Staphylococcus aureus, UniProt P68826); assay: Inhibition of Staphylococcus aureus PDF-Ni assessed as enzyme activity incubated for 30 min by fluorescamine method
T1 sequence (P68826 whole entry): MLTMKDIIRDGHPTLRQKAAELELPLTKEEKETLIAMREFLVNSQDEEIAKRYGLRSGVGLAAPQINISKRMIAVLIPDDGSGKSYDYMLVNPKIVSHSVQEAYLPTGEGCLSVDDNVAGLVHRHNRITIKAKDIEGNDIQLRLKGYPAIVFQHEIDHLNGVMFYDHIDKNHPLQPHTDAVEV

Peptide deformylase [27] = target: T2, Peptide deformylase (Escherichia coli, UniProt Q9JN24); assay: Inhibition of Escherichia coli PDF-Ni assessed as enzyme activity incubated for 30 min by fluorescamine method
T2 sequence (Q9JN24 whole entry): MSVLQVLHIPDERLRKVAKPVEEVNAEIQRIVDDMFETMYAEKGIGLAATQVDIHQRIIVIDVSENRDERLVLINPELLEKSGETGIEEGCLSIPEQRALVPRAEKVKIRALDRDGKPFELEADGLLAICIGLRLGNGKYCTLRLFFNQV

Staphylococcus aureus [28] = assay: Bactericidal activity against methicillin-resistant Staphylococcus aureus assessed as bacteriostatic efficiency at 0.5 microg/mL incubated for 24 hrs by time killing analysis relative to control; type: functional; conditions: dose 0.5 µg/ml
[29] = Acute toxicity in KM mouse infected with drug-resistant Acinetobacter baumannii assessed as survival rate at 40 mg/kg; type: organism-based; conditions: in vivo
[30] = Acute toxicity in KM mouse infected with drug-resistant Acinetobacter baumannii assessed as pathological changes in liver at 40 mg/kg by HE staining based analysis; type: organism-based; conditions: in vivo
[31] = Acute toxicity in KM mouse infected with drug-resistant Acinetobacter baumannii assessed as pathological changes in lungs at 40 mg/kg by HE staining based analysis; type: organism-based; conditions: in vivo
[32] = Acute toxicity in KM mouse infected with drug-resistant Acinetobacter baumannii assessed as pathological changes in kidney at 40 mg/kg by HE staining based analysis; type: organism-based; conditions: in vivo

Compound	MIC (Staphylococcus aureus [2]) [µg/mL]	MIC (Staphylococcus aureus [3]) [µg/mL]	MIC (Staphylococcus aureus [4]) [µg/mL]	MIC (Staphylococcus aureus [5]) [µg/mL]	MIC (Staphylococcus aureus [6]) [µg/mL]	MIC (Staphylococcus aureus [7]) [µg/mL]	MIC [8] [µg/mL]	MIC (Escherichia coli [9]) [µg/mL]	MIC (Klebsiella pneumoniae [10]) [µg/mL]	MIC (Acinetobacter baumannii [11]) [µg/mL]	MIC (Acinetobacter baumannii [12]) [µg/mL]	MIC (Acinetobacter baumannii [13]) [µg/mL]	MIC (Acinetobacter baumannii [14]) [µg/mL]	MIC (Acinetobacter baumannii [15]) [µg/mL]	MIC (Acinetobacter baumannii [16]) [µg/mL]	MIC (Acinetobacter baumannii [17]) [µg/mL]	MIC (Klebsiella pneumoniae [18]) [µg/mL]	MIC (Klebsiella pneumoniae [19]) [µg/mL]	MIC (Escherichia coli [20]) [µg/mL]	MIC (Escherichia coli [21]) [µg/mL]	other results
Nc1ccc(S(=O)(=O)c2ccc(N)cc2)cc1 [DAPSONE]																					Activity [1]: Toxic
CCCC[C@H](CN(O)C=O)C(=O)N1CCC[C@H]1c1nnc(-c2ccc(-c3ccccn3)cc2)s1	0.125 (≈ 0.261 µM)	0.25 (≈ 0.521 µM)	0.5 (≈ 1.04 µM)	0.5 (≈ 1.04 µM)	0.25 (≈ 0.521 µM)	0.5 (≈ 1.04 µM)	1 (≈ 2.09 µM)	64 (≈ 133 µM)	32 (≈ 66.7 µM)	32 (≈ 66.7 µM)	32 (≈ 66.7 µM)	32 (≈ 66.7 µM)	32 (≈ 66.7 µM)	32 (≈ 66.7 µM)	32 (≈ 66.7 µM)	32 (≈ 66.7 µM)	32 (≈ 66.7 µM)	16 (≈ 33.4 µM)	16 (≈ 33.4 µM)	16 (≈ 33.4 µM)	MIC (Escherichia coli [22]): 16 µg/mL (≈ 33.4 µM); IC50 at 24 h [23]: > 100 µM; IC50 at 24 h [24]: 89 µM; solubility at 2 h [25]: 370 µg/mL (≈ 771 µM); IC50 (Peptide deformylase [26]): 0.0043 µM; IC50 (Peptide deformylase [27]): 0.124 µM
CC(=O)NC[C@H]1CN(c2ccc(N3CCOCC3)c(F)c2)C(=O)O1 [LINEZOLID]	1 (≈ 2.96 µM)	1 (≈ 2.96 µM)	1 (≈ 2.96 µM)	1 (≈ 2.96 µM)	1 (≈ 2.96 µM)	1 (≈ 2.96 µM)	8 (≈ 23.7 µM)	> 128	128 (≈ 379 µM)	128 (≈ 379 µM)	> 16	128 (≈ 379 µM)	128 (≈ 379 µM)	128 (≈ 379 µM)	128 (≈ 379 µM)	128 (≈ 379 µM)	> 128	128 (≈ 379 µM)	128 (≈ 379 µM)	64 (≈ 190 µM)	MIC (Escherichia coli [22]): 16 µg/mL (≈ 47.4 µM); IC50 at 24 h [23]: > 100 µM; IC50 at 24 h [24]: > 100 µM
CCCC[C@H](CN(O)C=O)C(=O)N1CCC[C@H]1c1nnc(-c2ccc([N+](=O)[O-])cc2F)s1	0.125 (≈ 0.269 µM)	0.125 (≈ 0.269 µM)	0.5 (≈ 1.07 µM)	0.5 (≈ 1.07 µM)	0.25 (≈ 0.537 µM)	0.5 (≈ 1.07 µM)	0.5 (≈ 1.07 µM)	> 16	16 (≈ 34.4 µM)	> 16	> 16	16 (≈ 34.4 µM)	32 (≈ 68.7 µM)	16 (≈ 34.4 µM)	16 (≈ 34.4 µM)	16 (≈ 34.4 µM)	32 (≈ 68.7 µM)	16 (≈ 34.4 µM)	16 (≈ 34.4 µM)	8 (≈ 17.2 µM)	MIC (Escherichia coli [22]): 8 µg/mL (≈ 17.2 µM); IC50 at 24 h [23]: > 100 µM; IC50 at 24 h [24]: 91.7 µM; solubility at 2 h [25]: 2020 µg/mL (≈ 4340 µM); Activity (Staphylococcus aureus [28]): 100%
O=C(O)c1cn(C2CC2)c2cc(N3CCNCC3)c(F)cc2c1=O [CIPROFLOXACIN]	0.25 (≈ 0.754 µM)	64 (≈ 193 µM)	0.5 (≈ 1.51 µM)	8 (≈ 24.1 µM)	4 (≈ 12.1 µM)	8 (≈ 24.1 µM)	0.06 (≈ 0.181 µM)		0.03 (≈ 0.0905 µM)	0.5 (≈ 1.51 µM)	32 (≈ 96.6 µM)										Activity [29]: Toxic; Activity [30]: Toxic; Activity [31]: Toxic; Activity [32]: Toxic
